± gives the expanded uncertainty stated by the source.
Assay: mn = molality of the nth substance listed, in mol/kg
Settings: 100 kPa, Liquid; for speed of sound: Frequency=3 MHz, Sing-around technique in a fixed-path interferometer; for mass density: Vibrating tube method

O=S(=O)([O-])C(F)(F)F.O=S(=O)([O-])C(F)(F)F.[Sr+2] [strontium trifluoromethanesulfonate] + CC(=O)N(C)C
Settings	mass density, 298.15 K [kg/m3]	mass density, 303.15 K [kg/m3]	mass density, 308.15 K [kg/m3]	mass density, 313.15 K [kg/m3]	mass density, 318.15 K [kg/m3]	speed of sound, 298.15 K [m/s]	speed of sound, 303.15 K [m/s]	speed of sound, 308.15 K [m/s]	speed of sound, 313.15 K [m/s]	speed of sound, 318.15 K [m/s]
m1 = 0.009611	938.686 ± 0.52	934.078 ± 0.52	929.46 ± 0.52	924.833 ± 0.52	920.199 ± 0.52	1456.3 ± 1.3	1436.5 ± 1.3	1416.7 ± 1.3	1397 ± 1.3	1377.5 ± 1.3
m1 = 0.01616	940.308 ± 0.51	935.702 ± 0.51	931.087 ± 0.51	926.462 ± 0.51	921.831 ± 0.51	1456.5 ± 1.3	1436.8 ± 1.3	1417 ± 1.3	1397.3 ± 1.3	1377.8 ± 1.3
m1 = 0.02452	942.361 ± 0.51	937.757 ± 0.51	933.142 ± 0.51	928.518 ± 0.51	923.888 ± 0.51	1456.8 ± 1.3	1437.1 ± 1.3	1417.4 ± 1.3	1397.8 ± 1.3	1378.3 ± 1.3
m1 = 0.0346	944.817 ± 0.5	940.215 ± 0.5	935.603 ± 0.5	930.982 ± 0.51	926.353 ± 0.51	1456.9 ± 1.3	1437.2 ± 1.3	1417.5 ± 1.3	1398 ± 1.3	1378.6 ± 1.3
m1 = 0.04877	948.237 ± 0.5	943.637 ± 0.5	939.026 ± 0.5	934.407 ± 0.5	929.78 ± 0.5	1457.1 ± 1.3	1437.5 ± 1.3	1418 ± 1.3	1398.6 ± 1.3	1379.2 ± 1.3
m1 = 0.06177	951.363 ± 0.5	946.763 ± 0.5	942.151 ± 0.5	937.533 ± 0.5	932.906 ± 0.5	1457.3 ± 1.3	1437.8 ± 1.3	1418.3 ± 1.3	1398.9 ± 1.3	1379.7 ± 1.3
m1 = 0.07813	955.261 ± 0.49	950.663 ± 0.49	946.052 ± 0.49	941.432 ± 0.49	936.806 ± 0.5	1457.5 ± 1.3	1438.1 ± 1.3	1418.7 ± 1.3	1399.3 ± 1.3	1380.1 ± 1.3
m1 = 0.09814	960.007 ± 0.49	955.407 ± 0.49	950.795 ± 0.49	946.177 ± 0.49	941.551 ± 0.49	1457.7 ± 1.3	1438.4 ± 1.3	1419.1 ± 1.3	1399.8 ± 1.3	1380.7 ± 1.3
m1 = 0.1176	964.581 ± 0.49	959.98 ± 0.49	955.367 ± 0.49	950.748 ± 0.49	946.121 ± 0.49	1458 ± 1.3	1438.8 ± 1.3	1419.5 ± 1.3	1400.3 ± 1.3	1381.3 ± 1.3
m1 = 0.1476	971.566 ± 0.49	966.955 ± 0.49	962.34 ± 0.49	957.717 ± 0.49	953.091 ± 0.49	1458.3 ± 1.3	1439 ± 1.3	1419.8 ± 1.3	1400.8 ± 1.3	1381.8 ± 1.3

O=S(=O)([O-])C(F)(F)F.O=S(=O)([O-])C(F)(F)F.[Sr+2] [strontium trifluoromethanesulfonate] + CN(C)C=O
Settings	mass density, 298.15 K [kg/m3]	mass density, 303.15 K [kg/m3]	mass density, 308.15 K [kg/m3]	mass density, 313.15 K [kg/m3]	mass density, 318.15 K [kg/m3]	speed of sound, 298.15 K [m/s]	speed of sound, 303.15 K [m/s]	speed of sound, 308.15 K [m/s]	speed of sound, 313.15 K [m/s]	speed of sound, 318.15 K [m/s]
m1 = 0.01062	946.522 ± 0.51	941.756 ± 0.51	936.972 ± 0.51	932.186 ± 0.51	927.378 ± 0.51	1457.2 ± 1.3	1438 ± 1.3	1418.7 ± 1.3	1399.5 ± 1.3	1380.3 ± 1.3
m1 = 0.01763	948.231 ± 0.5	943.466 ± 0.5	938.685 ± 0.51	933.888 ± 0.5	929.08 ± 0.5	1457.2 ± 1.3	1438 ± 1.3	1418.7 ± 1.3	1399.6 ± 1.3	1380.4 ± 1.3
m1 = 0.02656	950.395 ± 0.5	945.626 ± 0.5	940.844 ± 0.5	936.049 ± 0.5	931.241 ± 0.5	1457.1 ± 1.3	1438 ± 1.3	1418.7 ± 1.3	1399.6 ± 1.3	1380.5 ± 1.3
m1 = 0.03847	953.244 ± 0.5	948.482 ± 0.5	943.704 ± 0.5	938.91 ± 0.5	934.105 ± 0.5	1457 ± 1.3	1437.9 ± 1.3	1418.7 ± 1.3	1399.6 ± 1.3	1380.6 ± 1.3
m1 = 0.04908	955.781 ± 0.49	951.013 ± 0.49	946.233 ± 0.49	941.439 ± 0.49	936.634 ± 0.49	1456.8 ± 1.3	1437.8 ± 1.3	1418.6 ± 1.3	1399.6 ± 1.3	1380.6 ± 1.3
m1 = 0.06765	960.189 ± 0.49	955.42 ± 0.49	950.641 ± 0.49	945.845 ± 0.49	941.04 ± 0.49	1456.5 ± 1.3	1437.6 ± 1.3	1418.5 ± 1.3	1399.5 ± 1.3	1380.7 ± 1.3
m1 = 0.08503	964.269 ± 0.49	959.5 ± 0.49	954.718 ± 0.49	949.923 ± 0.49	945.118 ± 0.49	1456.2 ± 1.3	1437.3 ± 1.3	1418.3 ± 1.3	1399.5 ± 1.3	1380.6 ± 1.3
m1 = 0.1067	969.35 ± 0.48	964.567 ± 0.48	959.781 ± 0.48	954.985 ± 0.48	950.18 ± 0.48	1456.1 ± 1.3	1437.1 ± 1.3	1418.2 ± 1.3	1399.3 ± 1.3	1380.6 ± 1.3
m1 = 0.1286	974.403 ± 0.48	969.629 ± 0.48	964.845 ± 0.48	960.047 ± 0.48	955.242 ± 0.48	1455.4 ± 1.3	1436.7 ± 1.3	1417.9 ± 1.3	1399.1 ± 1.3	1380.5 ± 1.3
m1 = 0.1612	981.851 ± 0.48	977.074 ± 0.48	972.285 ± 0.48	967.485 ± 0.48	962.676 ± 0.48	1454.7 ± 1.3	1436.1 ± 1.3	1417.4 ± 1.3	1398.8 ± 1.3	1380.2 ± 1.3

Reference: the NIST ThermoML archive (doi:10.1016/j.jct.2015.08.033)
